From ChEMBL document CHEMBL4651402, “Screening of ~5500 FDA-approved drugs and clinical candidates for anti-SARS-CoV-2 activity” (2021)
pIC50: −log10 of the molar value.

Tested on: SARS-CoV-2
Test: microbe, parasite or virus in culture
Conditions: Severe acute respiratory syndrome coronavirus 2, Vero C1008, 48 h; for IC50: read-out: pIC50 (converted)

| SMILES | pIC50 | IC50 |
| --- | --- | --- |
| C=C(C)[C@@H]1CCC(C)=C[C@H]1c1c(O)cc(CCCCC)cc1O [CANNABIDIOL] | < 4.70 | > 20 µM |
| C[C@]12CCC(=O)C=C1C=C[C@@H]1[C@@H]2CC[C@@]2(C)[C@H]1CC[C@@]21CCC(=O)O1 [CANRENONE] | < 4.70 | > 20 µM |
| C[C@@]12C(=O)OC(=O)[C@]1(C)[C@H]1CC[C@@H]2O1 [CANTHARIDIN] | < 4.70 | > 20 µM |
| CCCCCOC(=O)Nc1nc(=O)n([C@@H]2O[C@H](C)[C@@H](O)[C@H]2O)cc1F [CAPECITABINE] | < 4.70 | > 20 µM |
| NC1(C(=O)N[C@@H](CCO)c2ccc(Cl)cc2)CCN(c2nc[nH]c3nccc2-3)CC1 [CAPIVASERTIB] | < 4.70 | > 20 µM |
| CNC(=O)c1ccc(-c2cnc3ncc(Cc4ccc5ncccc5c4)n3n2)cc1F [CAPMATINIB] | < 4.70 | > 20 µM |
| COc1cc(C(=O)NCCCCCC(=O)O)cc(OC)c1OC [CAPOBENIC ACID] | < 4.70 | > 20 µM |
| CN1N=C2CCN(C(=O)[C@@H](COCc3ccccc3)NC(=O)C(C)(C)N)C[C@@]2(Cc2ccccc2)C1=O [CAPROMORELIN] | < 4.70 | > 20 µM |
| COc1cc(CNC(=O)CCCC/C=C/C(C)C)ccc1O [CAPSAICIN] | < 4.70 | > 20 µM |
| C[C@H](CS)C(=O)N1CCC[C@H]1C(=O)O [CAPTOPRIL] | < 4.70 | > 20 µM |
| COC(=O)N/N=C/c1c[n+]([O-])c2ccccc2[n+]1[O-] [CARBADOX] | < 4.70 | > 20 µM |
| NC(=O)N1c2ccccc2C2OC2c2ccccc21 (stereo not drawn) [CARBAMAZEPINE EPOXIDE] | < 4.70 | > 20 µM |
| NC(=O)N1c2ccccc2C=Cc2ccccc21 [CARBAMAZEPINE] | < 4.70 | > 20 µM |
| C[N+](C)(C)CCOC(N)=O [CARBAMOYLCHOLINE] | < 4.70 | > 20 µM |
| CNC(=O)Oc1cccc2ccccc12 [CARBARIL] | < 4.70 | > 20 µM |
| CCNC(=O)OC1CCN(c2nncc3cc(OC)c(OC)cc23)CC1 [CARBAZERAN] | < 4.70 | > 20 µM |
| CN1C2=CC(=O)/C(=N\NC(N)=O)C=C2CC1S(=O)(=O)O (stereo not drawn) [CARBAZOCHROME SULFONIC ACID] | < 4.70 | > 20 µM |

| SMILES | pIC50 | IC50 |
| --- | --- | --- |
| CC1(C)[C@@H](OC(=O)CCC(=O)O)CC[C@]2(C)[C@H]3C(=O)C=C4[C@@H]5C[C@@](C)(C(=O)O)CC[C@]5(C)CC[C@@]4(C)[C@]3(C)CC[C@@H]12 [CARBENOXOLONE] | < 4.70 | > 20 µM |
| CCN(CC)CCOCCOC(=O)C1(c2ccccc2)CCCC1 [CARBETAPENTANE] | < 4.70 | > 20 µM |
| C[C@@](Cc1ccc(O)c(O)c1)(NN)C(=O)O [CARBIDOPA ANHYDROUS] | < 4.70 | > 20 µM |
| CCOC(=O)n1ccn(C)c1=S [CARBIMAZOLE] | < 4.70 | > 20 µM |
| CN(C)CCOC(c1ccc(Cl)cc1)c1ccccn1 (stereo not drawn) [CARBINOXAMINE] | < 4.70 | > 20 µM |
| CCOC(C(=O)N(C)CCN(C)CCc1ccccc1)(c1ccccc1)c1ccccc1 [CARBIPHENE] | < 4.70 | > 20 µM |
| CC1=C(C(=O)Nc2ccccc2)SCCO1 [CARBOXIN] | < 4.70 | > 20 µM |
| NC(=O)c1nnn(Cc2cc(Cl)c(C(=O)c3ccc(Cl)cc3)c(Cl)c2)c1N [CARBOXYAMIDOTRIAZOLE] | < 4.70 | > 20 µM |
| CCC(Br)(CC)C(=O)NC(N)=O [CARBROMAL] | < 4.70 | > 20 µM |
| CCCCNC(=O)NS(=O)(=O)c1ccc(N)cc1 [CARBUTAMIDE] | < 4.70 | > 20 µM |
| NCCC(=O)NCCc1c[nH]cn1 [CARCININE] | < 4.70 | > 20 µM |
| CC(C)C[C@H](NC(=O)[C@H](CCc1ccccc1)NC(=O)CN1CCOCC1)C(=O)N[C@@H](Cc1ccccc1)C(=O)N[C@@H](CC(C)C)C(=O)[C@@]1(C)CO1 [CARFILZOMIB] | < 4.70 | > 20 µM |
| CCCC(C)(COC(N)=O)COC(=O)NC(C)C (stereo not drawn) [CARISOPRODOL] | < 4.70 | > 20 µM |
| CCCCCCNC(=O)n1cc(F)c(=O)[nH]c1=O [CARMOFUR] | < 4.70 | > 20 µM |
| O=NN(CCCl)C(=O)NCCCl [CARMUSTINE] | < 4.70 | > 20 µM |
| COC(=S)NCCn1c([N+](=O)[O-])cnc1C [CARNIDAZOLE] | < 4.70 | > 20 µM |
| C[N+](C)(C)CC(O)CC(=O)[O-] (stereo not drawn) [CARNITINE] | < 4.70 | > 20 µM |
